{
  "source": "patent US11603377B2",
  "about": "“MTORC1 modulators and uses thereof” (Aeovian Pharmaceuticals, Inc., priority 2020, dated 2023)",
  "key": {"[1]": {"molecular_target": "FKBP51 / FRB ternary complex (Homo sapiens (Human), UniProt P42345+Q13451)", "test": "SPR assay to characterize ternary complex formation with FKBP51 (FRB binding to rapalog-saturated FKBP51)", "conditions": "FRB dilutions with 100 nM rapalog on immobilized FKBP51", "procedure,_shortened": "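SPR with biotinylated avi-FKBP51 on streptavidin chip (~200 RU); FRB (0.00011-20 μM, 3-fold series) injected with 100 nM rapalog, A-B-A mode keeping FKBP saturated with rapalog.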"}, "[2]": {"molecular_target": "FKBP12 / FRB ternary complex (Homo sapiens (Human), UniProt P42345+P62942)", "test": "SPR assay to characterize ternary complex formation with FKBP12 (FRB binding to rapalog-saturated FKBP12)", "conditions": "FRB dilutions with 100 nM rapalog on immobilized FKBP12", "procedure,_shortened": "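Biotinylated avi-FKBP12 immobilized (~100 RU) on streptavidin chip; A-B-A injections kept FKBP12 saturated with 100 nM rapalog while FRB (0.00011–20 μM, 3-fold, 12 points) was injected 120 s.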"}, "FKBP51": {"molecular_target": "FKBP51 (Homo sapiens (Human), UniProt Q13451)", "sequence (Q13451 whole entry)": "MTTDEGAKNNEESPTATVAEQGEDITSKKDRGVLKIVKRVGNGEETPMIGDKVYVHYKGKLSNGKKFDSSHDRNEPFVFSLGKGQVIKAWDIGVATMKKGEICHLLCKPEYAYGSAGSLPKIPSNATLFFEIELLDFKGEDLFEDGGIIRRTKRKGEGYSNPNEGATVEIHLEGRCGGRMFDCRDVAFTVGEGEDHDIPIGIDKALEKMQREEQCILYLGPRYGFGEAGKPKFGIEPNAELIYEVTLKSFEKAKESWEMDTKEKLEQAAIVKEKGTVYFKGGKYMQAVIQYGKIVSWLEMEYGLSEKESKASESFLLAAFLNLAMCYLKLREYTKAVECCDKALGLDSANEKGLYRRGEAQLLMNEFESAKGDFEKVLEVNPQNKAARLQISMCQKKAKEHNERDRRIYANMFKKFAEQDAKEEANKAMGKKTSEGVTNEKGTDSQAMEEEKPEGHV", "test": "SPR assay to determine binding affinity to FKBP51 (direct binding)", "conditions": "immobilized biotinylated avi-FKBP51", "procedure,_shortened": "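Biotinylated avi-FKBP51 captured on streptavidin chip to about 2000 RU. Compounds injected at 0.5-1000 nM (8 points, 3-fold) for 120 s contact and 3600 s dissociation in 50 mM HEPES pH 7.5, 150 mM NaCl, 2 mM MgCl2, 1 mM DTT, 0.05% Tween-20, 1% DMSO.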"}, "FKBP12": {"molecular_target": "FKBP12 (Homo sapiens (Human), UniProt P62942)", "sequence (P62942 whole entry)": "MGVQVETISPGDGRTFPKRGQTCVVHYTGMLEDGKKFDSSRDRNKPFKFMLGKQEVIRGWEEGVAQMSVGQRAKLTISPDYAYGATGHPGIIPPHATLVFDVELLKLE", "test": "SPR assay to determine binding affinity to FKBP12 (direct binding)", "conditions": "immobilized biotinylated avi-FKBP12"}, "mTORC2": {"molecular_target": "mTORC2 (Homo sapiens (Human), UniProt P42345+P62942)", "test": "mTORC2 inhibition, AlphaLISA of Phospho-AKT (pAKT pS473) in PC3 cells", "type": "cell-based"}, "mTORC1": {"molecular_target": "mTORC1 (Homo sapiens (Human), UniProt P42345+P62942)", "test": "mTORC1 inhibition, AlphaLISA of Phospho-p70 S6 kinase (p70S6K pT389) in PC-3 cells", "type": "cell-based", "conditions": "inhibition of p70S6K pT389 levels"}},
  "data": [
    {"smiles": "CO[C@@H]1C[C@H](C[C@@H](C)[C@@H]2CC(=O)[C@H](C)/C=C(\\C)[C@@H](O)[C@@H](OC)C(=O)[C@H](C)C[C@H](C)/C=C/C=C/C=C(\\C)[C@H](OCCCO)C[C@@H]3CC[C@@H](C)[C@@](O)(O3)C(=O)C(=O)N3CCCC[C@H]3C(=O)O2)CC[C@H]1OCCCS(C)(=O)=O", "note": "[Compound 69]", "values": [
      {"measurement": "Kd", "setting": "[1]", "value": "> 800", "unit": "nM"},
      {"measurement": "Kd", "setting": "[2]", "value": "300 to 800", "unit": "nM"},
      {"measurement": "Kd", "setting": "FKBP51", "value": "10 to 100", "unit": "nM"},
      {"measurement": "Kd", "setting": "FKBP12", "value": "0.3 to 1", "unit": "nM"},
      {"measurement": "mTORC2 % inhibition at 1 uM", "setting": "mTORC2", "value": "B (B>20% and less than 40% inhibition at 1 uM)"},
      {"measurement": "IC50", "setting": "mTORC1", "value": "0.1 to 0.8", "unit": "nM"}
    ]}
  ]
}
